Measured values taken from patent US20060084688A1, “Aromatic sulfone hydroxamic acid metalloprotease inhibitor” (priority 1997, published 2006).

Key:
[1] = rat, in vivo, 20 mg/kg; for BA / Blood Level @ 6 hr: po
[2] = target: recombinant human MMP-13 (Homo sapiens, UniProt P45452); assay: biochemical; conditions: Inhibition Table B
[3] = target: T1, recombinant human MMP-1 (Homo sapiens, UniProt P03956); assay: biochemical; conditions: Inhibition Table B
T1 construct: made in house; host or cells: transfected HT-1080 cells
T1 sequence (P03956 100-469): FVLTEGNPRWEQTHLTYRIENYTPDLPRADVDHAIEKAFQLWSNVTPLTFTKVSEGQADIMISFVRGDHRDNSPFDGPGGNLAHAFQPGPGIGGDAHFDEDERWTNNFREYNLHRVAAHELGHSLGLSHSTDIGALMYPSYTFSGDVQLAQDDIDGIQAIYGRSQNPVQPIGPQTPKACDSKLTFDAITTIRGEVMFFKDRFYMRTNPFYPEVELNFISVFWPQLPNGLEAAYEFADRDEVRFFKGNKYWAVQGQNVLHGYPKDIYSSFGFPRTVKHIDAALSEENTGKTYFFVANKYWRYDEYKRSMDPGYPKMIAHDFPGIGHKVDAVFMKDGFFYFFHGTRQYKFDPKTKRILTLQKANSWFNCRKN

[4] = target: T2, recombinant human MMP-2 (Homo sapiens, UniProt P08253); assay: biochemical; conditions: Inhibition Table B
T2 sequence (P08253 110-660): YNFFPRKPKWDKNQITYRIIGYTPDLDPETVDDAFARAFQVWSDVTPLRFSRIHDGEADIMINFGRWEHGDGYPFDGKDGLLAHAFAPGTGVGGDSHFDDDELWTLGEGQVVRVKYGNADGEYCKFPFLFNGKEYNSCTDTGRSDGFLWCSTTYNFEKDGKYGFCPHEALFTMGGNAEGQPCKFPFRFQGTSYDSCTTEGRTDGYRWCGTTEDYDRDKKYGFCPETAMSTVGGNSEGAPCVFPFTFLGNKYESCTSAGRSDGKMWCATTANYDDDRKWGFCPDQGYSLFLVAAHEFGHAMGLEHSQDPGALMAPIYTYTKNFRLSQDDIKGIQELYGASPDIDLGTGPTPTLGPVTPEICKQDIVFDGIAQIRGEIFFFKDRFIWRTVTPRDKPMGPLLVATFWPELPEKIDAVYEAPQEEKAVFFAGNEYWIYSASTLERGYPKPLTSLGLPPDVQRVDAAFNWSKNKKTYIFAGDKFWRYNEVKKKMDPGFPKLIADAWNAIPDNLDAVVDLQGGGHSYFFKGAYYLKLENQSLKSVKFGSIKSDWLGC

SMILES | Blood Level @ 3 min [1] [ng/mL] | BA [1] [%] | Blood Level @ 6 hr [1] [ng/mL] | IC50 [2] [nM] | IC50 [3] [nM] | IC50 [4] [nM]
CC(=O)N1CCC(C(=O)NO)(S(=O)(=O)c2ccc(Oc3ccccc3)cc2)CC1 [Example 12, 1-acetyl-N-hydroxy-4-[(4-phenoxyphenyl)sulfonyl]-4-piperidinecarboxamide] | 73540 | 11.1 | 121 |  |  | 
Cl.O=C(NO)C1(S(=O)(=O)c2ccc(Oc3ccccc3)cc2)CCN(C2CC2)CC1 [Example 17, 1-cyclopropyl-N-hydroxy-4-[(4-phenoxyphenyl)sulfonyl]-4-piperidinecarboxamide] | 63440 | 35.9 | 135 |  |  | 
CC1(C)C[C@@H]2C[C@@](C)(CN2C(=O)C2CCN(c3ccc(S(=O)(=O)C4(C(=O)NO)CCOCC4)cc3)CC2)C1 [Example 164] |  |  |  | 20 | > 10000 | 1750
O=C(C1CCN(c2ccc(S(=O)(=O)C3(C(=O)NO)CCOCC3)cc2)CC1)N1CCCCCC1 [Example 165] |  |  |  | 13.6 | > 10000 | 330
O=C(C1CCCN(c2ccc(S(=O)(=O)C3(C(=O)NO)CCOCC3)cc2)C1)N1CCC(O)C1 (stereo not drawn) [Example 166] |  |  |  | > 100 | > 10000 | > 1000
CN(C)[C@H]1CCN(C(=O)C2CCCN(c3ccc(S(=O)(=O)C4(C(=O)NO)CCOCC4)cc3)C2)C1 (stereo partly drawn) [Example 167] |  |  |  | > 100 | > 10000 | > 1000
N[C@H]1CCN(C(=O)C2CCCN(c3ccc(S(=O)(=O)C4(C(=O)NO)CCOCC4)cc3)C2)C1 (stereo partly drawn) [Example 168] |  |  |  | > 100 | > 10000 | > 1000
O=C(C1CCCN(c2ccc(S(=O)(=O)C3(C(=O)NO)CCOCC3)cc2)C1)N1CCC(N2CCCC2)CC1 (stereo not drawn) [Example 171] |  |  |  | > 100 | > 10000 | > 1000
O=C(C1CCCN(c2ccc(S(=O)(=O)C3(C(=O)NO)CCOCC3)cc2)C1)N1CCCC1 (stereo not drawn) [Example 172] |  |  |  | > 100 | > 10000 | > 1000
O=C(C1CCN(c2ccc(S(=O)(=O)C3(C(=O)NO)CCOCC3)cc2)CC1)N1CCC(O)C1 (stereo not drawn) [Example 173] |  |  |  | > 100 | > 10000 | > 1000
CN(C)[C@H]1CCN(C(=O)C2CCN(c3ccc(S(=O)(=O)C4(C(=O)NO)CCOCC4)cc3)CC2)C1 [Example 174] |  |  |  | > 100 | 8000 | 900
O=C(C1CCN(c2ccc(S(=O)(=O)C3(C(=O)NO)CCOCC3)cc2)CC1)N1CCCC2CCCCC21 (stereo not drawn) [Example 177] |  |  |  | 21 | > 10000 | 400
O=C(C1CCN(c2ccc(S(=O)(=O)C3(C(=O)NO)CCOCC3)cc2)CC1)N1CCC(N2CCCC2)CC1 [Example 178] |  |  |  | > 100 | > 10000 | 540
C=CCN(CC=C)C(=O)C1CCN(c2ccc(S(=O)(=O)C3(C(=O)NO)CCOCC3)cc2)CC1 [Example 182] |  |  |  | 4 | > 10000 | 240
CN(C)CCCN(CCCN(C)C)C(=O)C1CCN(c2ccc(S(=O)(=O)C3(C(=O)NO)CCOCC3)cc2)CC1 [Example 183] |  |  |  | 40 | > 10000 | 288
CC(C)NC(=O)C1CCN(c2ccc(S(=O)(=O)C3(C(=O)NO)CCOCC3)cc2)CC1 [Example 184] |  |  |  | 7 | > 10000 | 94
O=C(NN1CCOCC1)C1CCN(c2ccc(S(=O)(=O)C3(C(=O)NO)CCOCC3)cc2)CC1 [Example 185] |  |  |  | 17.5 | > 10000 | 210
O=C(NCc1cccnc1)C1CCN(c2ccc(S(=O)(=O)C3(C(=O)NO)CCOCC3)cc2)CC1 [Example 186] |  |  |  | 10 | > 10000 | 120
O=C(NC1CCCCC1)C1CCN(c2ccc(S(=O)(=O)C3(C(=O)NO)CCOCC3)cc2)CC1 [Example 187] |  |  |  | 12.1 | > 10000 | 290
O=C(NC1CCc2ccccc21)C1CCN(c2ccc(S(=O)(=O)C3(C(=O)NO)CCOCC3)cc2)CC1 (stereo not drawn) [Example 188] |  |  |  | 9.4 | > 10000 | 350
O=C(NCc1cccs1)C1CCN(c2ccc(S(=O)(=O)C3(C(=O)NO)CCOCC3)cc2)CC1 [Example 189] |  |  |  | 8 | 3700 | 94
CC1CCN(C(=O)C2CCN(c3ccc(S(=O)(=O)C4(C(=O)NO)CCOCC4)cc3)CC2)CC1 [Example 190] |  |  |  | 10.6 | > 10000 | 220

SMILES | Blood Level @ 3 min [1] [ng/mL] | BA [1] [%] | Blood Level @ 6 hr [1] [ng/mL] | IC50 [2] [nM] | IC50 [3] [nM] | IC50 [4] [nM]
O=C(C1CCN(c2ccc(S(=O)(=O)C3(C(=O)NO)CCOCC3)cc2)CC1)N1CCC(Cc2ccccc2)CC1 [Example 191] |  |  |  | 4 | > 10000 | 350
O=C(C1CCN(c2ccc(S(=O)(=O)C3(C(=O)NO)CCOCC3)cc2)CC1)N1CCC(c2ccccc2)CC1 [Example 192] |  |  |  | 10 | > 10000 | 330
O=C(C1CCN(c2ccc(S(=O)(=O)C3(C(=O)NO)CCOCC3)cc2)CC1)N1CCC(O)(Cc2ccccc2)CC1 [Example 193] |  |  |  | 6 | > 10000 | 390
O=C(NCc1ccccn1)C1CCN(c2ccc(S(=O)(=O)C3(C(=O)NO)CCOCC3)cc2)CC1 [Example 196] |  |  |  | 25 | > 10000 | 240
O=C(C1CCN(c2ccc(S(=O)(=O)C3(C(=O)NO)CCOCC3)cc2)CC1)N(Cc1ccccc1)Cc1ccccc1 [Example 198] |  |  |  | 14.5 | > 10000 | 270
O=C(C1CCN(c2ccc(S(=O)(=O)C3(C(=O)NO)CCOCC3)cc2)CC1)N1CCc2ccccc2C1 [Example 199] |  |  |  | 1.4 | > 10000 | 155
O=C(C1CCCCCC1)N1CCN(c2ccc(S(=O)(=O)C3(C(=O)NO)CCOCC3)cc2)CC1 [Example 202] |  |  |  | 9.15 | > 10000 | 54
O=C([C@@H]1CCCN1)N1CCN(c2ccc(S(=O)(=O)C3(C(=O)NO)CCOCC3)cc2)CC1 [Example 203] |  |  |  | 30 | 8500 | 31
CC(C)[C@H](N)C(=O)N1CCN(c2ccc(S(=O)(=O)C3(C(=O)NO)CCOCC3)cc2)CC1 [Example 204] |  |  |  | 27.1 | > 10000 | 25
O=C(Oc1ccc([N+](=O)[O-])cc1)N1CCN(c2ccc(S(=O)(=O)C3(C(=O)NO)CCOCC3)cc2)CC1 [Example 205] |  |  |  | 2 | 7300 | 12.7
CN(C)C(=O)N1CCN(c2ccc(S(=O)(=O)C3(C(=O)NO)CCOCC3)cc2)CC1 [Example 208] |  |  |  | 27 | > 10000 | 27
O=C(N1CCNCC1)N1CCN(c2ccc(S(=O)(=O)C3(C(=O)NO)CCOCC3)cc2)CC1 [Example 209] |  |  |  | 20 | > 10000 | 19
CN1CCN(C(=O)N2CCN(c3ccc(S(=O)(=O)C4(C(=O)NO)CCOCC4)cc3)CC2)CC1 [Example 210] |  |  |  | 20 | > 10000 | 27
CCOC(=O)C1CCN(C(=O)N2CCN(c3ccc(S(=O)(=O)C4(C(=O)NO)CCOCC4)cc3)CC2)CC1 [Example 211] |  |  |  | 24 | > 10000 | 33
CCOC(=O)C1CCCN(C(=O)N2CCN(c3ccc(S(=O)(=O)C4(C(=O)NO)CCOCC4)cc3)CC2)C1 (stereo not drawn) [Example 212] |  |  |  | 20 | > 10000 | 33
O=C(NO)C1(S(=O)(=O)c2ccc(-c3cccc([N+](=O)[O-])c3)cc2)CCOCC1 [Example 214] |  |  |  | < 1 | 1100 | < 1
O=C(NO)C1(S(=O)(=O)c2ccc(-c3ccc(Cl)cc3)cc2)CCOCC1 [Example 216] |  |  |  | < 1 | 1000 | < 1
O=C(NO)C1(S(=O)(=O)c2ccc(-c3ccc(C(F)(F)F)cc3)cc2)CCOCC1 [Example 221] |  |  |  | < 1 | 1600 | < 1
Cc1cc(-c2ccc(S(=O)(=O)C3(C(=O)NO)CCOCC3)cc2)ccc1F [Example 222] |  |  |  | < 1 | 100 | < 1
Cc1ccc(-c2ccc(S(=O)(=O)C3(C(=O)NO)CCOCC3)cc2)cc1C [Example 223] |  |  |  | < 1 | 1100 | < 1
O=C(NO)C1(S(=O)(=O)c2ccc(-c3cc4ccccc4o3)cc2)CCOCC1 [Example 229] |  |  |  | < 1 | > 10000 | < 1
